ChEMBL document CHEMBL1157967, “Triterpenoid saponins from the fruits of Caryocar villosum” (J Nat Prod, 2006)
Activity calls are given as the source filed them.

Assays:
Type in all cases: functional, organism-based
Escherichia coli = experiment: Antibacterial activity against Escherichia coli at 50 ug by agar diffusion method
Staphylococcus aureus = experiment: Antibacterial activity against Staphylococcus aureus at 50 ug by agar diffusion method
Pseudomonas aeruginosa = experiment: Antibacterial activity against Pseudomonas aeruginosa at 50 ug by agar diffusion method
[1] = tested on: Mycolicibacterium smegmatis; experiment: Antibacterial activity against Mycobacterium smegmatis at 50 ug by agar diffusion method
Enterococcus faecalis = experiment: Antibacterial activity against Enterococcus faecalis at 50 ug by agar diffusion method

Measured: Activity

CC1(C)CC[C@]2(C(=O)O)CC[C@]3(C)C(=CC[C@@H]4[C@@]5(C)C[C@H](O)[C@H](O[C@@H]6O[C@H](CO)[C@@H](O)[C@H](O[C@@H]7O[C@H](CO)[C@H](O)[C@H](O)[C@H]7O)[C@H]6O)[C@@](C)(CO)[C@@H]5CC[C@]43C)[C@@H]2C1
inactive: Escherichia coli | Staphylococcus aureus | Pseudomonas aeruginosa | [1] | Enterococcus faecalis

CC1(C)CC[C@]2(C(=O)O[C@@H]3O[C@H](CO)[C@@H](O)[C@H](O)[C@H]3O)CC[C@]3(C)C(=CC[C@@H]4[C@@]5(C)C[C@H](O)[C@H](O[C@@H]6O[C@H](C(=O)O)[C@@H](O)[C@H](O[C@@H]7O[C@H](CO)[C@H](O[C@@H]8O[C@H](CO)[C@H](O)[C@H](O[C@@H]9O[C@H](CO)[C@H](O)[C@H](O[C@@H]%10OC[C@@H](O)[C@H](O)[C@H]%10O)[C@H]9O)[C@H]8O)[C@H](O)[C@H]7O)[C@H]6O)C(C)(C)[C@@H]5CC[C@]43C)[C@@H]2C1
inactive: Escherichia coli | Staphylococcus aureus | Pseudomonas aeruginosa | [1] | Enterococcus faecalis

CC1(C)CC[C@]2(C(=O)O[C@@H]3O[C@H](CO)[C@@H](O)[C@H](O)[C@H]3O)CC[C@]3(C)C(=CC[C@@H]4[C@@]5(C)CC[C@H](O[C@@H]6O[C@H](CO)[C@H](O)[C@H](O)[C@H]6O[C@@H]6O[C@H](CO)[C@@H](O)[C@H](O)[C@H]6O)[C@@](C)(CO)[C@@H]5CC[C@]43C)[C@@H]2C1
inactive: Escherichia coli | Staphylococcus aureus | Pseudomonas aeruginosa | [1] | Enterococcus faecalis

CC1(C)CC[C@]2(C(=O)O[C@@H]3O[C@H](CO)[C@@H](O)[C@H](O)[C@H]3O)CC[C@]3(C)C(=CC[C@@H]4[C@@]5(C)C[C@H](O)[C@H](O[C@@H]6O[C@H](C(=O)O)[C@@H](O)[C@H](O[C@@H]7O[C@H](CO)[C@H](O)[C@H](O)[C@H]7O)[C@H]6O)C(C)(C)[C@@H]5CC[C@]43C)[C@@H]2C1
inactive: Escherichia coli | Staphylococcus aureus | Pseudomonas aeruginosa | [1] | Enterococcus faecalis

CC1(C)CC[C@]2(C(=O)O)CC[C@]3(C)C(=CC[C@@H]4[C@@]5(C)CC[C@H](O[C@@H]6O[C@H](CO)[C@@H](O)[C@H](O[C@@H]7O[C@H](CO)[C@H](O)[C@H](O)[C@H]7O)[C@H]6O)[C@@](C)(CO)[C@@H]5CC[C@]43C)[C@@H]2C1
inactive: Escherichia coli | Staphylococcus aureus | Pseudomonas aeruginosa | [1] | Enterococcus faecalis
